The text below walks through data of patent publication US10118916B2, “Modulators of cystic fibrosis transmembrane conductance regulator protein” (AbbVie S.à.r.l., priority 2016, dated 2018).

This experiment deals with T1, F508delCFTR (Homo sapiens, UniProt P13569, DEL508-508).
T1 construct: expressed in transfected cells; host or cells: CFBE41o- (human lung derived epithelial cell line), doxycycline-inducible
The experiment is described as follows: Cell Surface Expression-Horse Radish Peroxidase (CSE-HRP) assay. Type of experiment: cell-based. Conditions: CFBE41o-F508delCFTR-HRP cells; for EC50: F508delCFTR cell surface expression, luminescence, 18-24 hours at 33° C., highest concentration 20 μM; for Maximum % activity: maximum at any tested concentration, normalized to on-plate positive control (3 μM). The procedure, abridged: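 CFBE41o- cells expressing doxycycline-induced (0.5 μg/mL, 72 h at 37 °C) F508delCFTR with HRP in the fourth extracellular loop; compounds 8 points, 3-fold from 20 μM, 18-24 h at 33 °C. Surface HRP measured by luminol luminescence, normalised to DMSO and 3 μM reference corrector; EC50 from variable-slope sigmoidal fit of triplicate plates.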

T1 sequence (P13569 with tags, fused parts or gaps DEL508-508): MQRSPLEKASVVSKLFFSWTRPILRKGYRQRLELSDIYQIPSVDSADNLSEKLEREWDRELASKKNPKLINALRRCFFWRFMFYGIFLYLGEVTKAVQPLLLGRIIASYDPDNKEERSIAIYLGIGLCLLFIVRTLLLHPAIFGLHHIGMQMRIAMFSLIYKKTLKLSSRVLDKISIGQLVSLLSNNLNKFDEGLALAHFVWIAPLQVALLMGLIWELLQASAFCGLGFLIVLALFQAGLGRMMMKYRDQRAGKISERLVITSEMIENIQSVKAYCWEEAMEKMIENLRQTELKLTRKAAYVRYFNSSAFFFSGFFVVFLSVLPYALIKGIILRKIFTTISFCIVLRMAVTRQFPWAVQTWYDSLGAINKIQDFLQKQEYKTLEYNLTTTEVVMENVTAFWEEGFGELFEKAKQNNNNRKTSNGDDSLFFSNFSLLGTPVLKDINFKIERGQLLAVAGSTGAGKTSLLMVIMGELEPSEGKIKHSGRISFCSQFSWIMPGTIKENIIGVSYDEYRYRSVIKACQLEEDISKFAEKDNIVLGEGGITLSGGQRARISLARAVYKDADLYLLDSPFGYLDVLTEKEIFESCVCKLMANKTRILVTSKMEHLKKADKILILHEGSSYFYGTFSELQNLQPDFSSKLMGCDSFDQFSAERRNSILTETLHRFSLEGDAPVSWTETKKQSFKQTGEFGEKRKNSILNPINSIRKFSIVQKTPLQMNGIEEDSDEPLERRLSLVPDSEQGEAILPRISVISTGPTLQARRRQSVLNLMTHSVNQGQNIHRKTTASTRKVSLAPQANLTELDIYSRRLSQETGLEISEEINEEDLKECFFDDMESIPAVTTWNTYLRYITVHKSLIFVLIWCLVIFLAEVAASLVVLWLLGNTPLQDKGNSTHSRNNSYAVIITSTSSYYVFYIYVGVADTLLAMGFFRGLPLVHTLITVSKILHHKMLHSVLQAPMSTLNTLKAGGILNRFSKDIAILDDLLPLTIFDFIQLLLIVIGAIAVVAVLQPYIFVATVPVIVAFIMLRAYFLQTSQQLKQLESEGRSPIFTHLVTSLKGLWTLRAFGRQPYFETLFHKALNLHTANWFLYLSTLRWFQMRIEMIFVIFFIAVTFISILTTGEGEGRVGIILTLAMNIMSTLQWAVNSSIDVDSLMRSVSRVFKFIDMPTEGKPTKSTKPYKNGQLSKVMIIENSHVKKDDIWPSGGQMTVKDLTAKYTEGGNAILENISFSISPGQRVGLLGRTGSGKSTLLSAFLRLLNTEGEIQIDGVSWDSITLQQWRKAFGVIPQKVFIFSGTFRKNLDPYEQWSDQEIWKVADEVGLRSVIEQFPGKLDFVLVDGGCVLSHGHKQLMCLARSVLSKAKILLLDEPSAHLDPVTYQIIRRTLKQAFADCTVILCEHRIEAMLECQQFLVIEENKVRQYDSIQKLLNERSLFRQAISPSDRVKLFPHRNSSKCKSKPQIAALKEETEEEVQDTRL

The term EC50 denotes the concentration at which the effect is half-maximal. Higher therefore signals weaker potency. In turn, `COc1ccc2c(c1)O[C@@H](c1ccc(C(=O)O)cc1)C[C@H]2NC(=O)C1(c2ccc(F)c(F)c2)CCC1` [Example 81, 4-[(2R,4R)-4-{[1-(3,4-difluorophenyl)cyclobutane-1-carbonyl]amino}-7-methoxy-3,4-dihydro-2H-1-benzopyran-2-yl]benzoic acid] displayed an EC50 of 1.88 µM and a Maximum % activity of 32.0%.
The like results for `COc1ccc2c(c1)O[C@@H](c1ccc(C(=O)O)cc1)C[C@H]2NC(=O)C1(c2ccccc2C(F)(F)F)CCC1` [Example 82, 4-[(2R,4R)-7-methoxy-4-({1-[2-(trifluoromethyl)phenyl]cyclobutane-1-carbonyl}amino)-3,4-dihydro-2H-1-benzopyran-2-yl]benzoic acid] were, in that order, 1.88 µM and 23.3%.
The like results for `COc1ccc2c(c1)O[C@@H](c1ccc(C(=O)O)cc1)C[C@H]2NC(=O)C1(c2cccc(OC(F)(F)F)c2)CCC1` [Example 83, 4-[(2R,4R)-7-methoxy-4-({1-[3-(trifluoromethoxy)phenyl]cyclobutane-1-carbonyl}amino)-3,4-dihydro-2H-1-benzopyran-2-yl]benzoic acid] were, in that order, 3.17 µM and 51.0%.
On to `COc1ccc2c(c1)O[C@@H](c1ccc(C(=O)O)cc1)C[C@H]2NC(=O)C1(c2ccc(F)cc2)CC1` [Example 84, 4-[(2R,4R)-4-{[1-(4-fluorophenyl)cyclopropane-1-carbonyl]amino}-7-methoxy-3,4-dihydro-2H-1-benzopyran-2-yl]benzoic acid], for which the EC50 is 0.56 µM and the Maximum % activity worked out at 56.2%.
The corresponding values for `COc1ccc2c(c1)O[C@@H](c1ccc(C(=O)O)cc1)C[C@H]2NC(=O)C1(c2cccc(F)c2)CC1` [Example 85, 4-[(2R,4R)-4-{[1-(3-fluorophenyl)cyclopropane-1-carbonyl]amino}-7-methoxy-3,4-dihydro-2H-1-benzopyran-2-yl]benzoic acid] are 0.72 µM and 50.4%.
The corresponding values for `COc1ccc2c(c1)O[C@@H](c1ccc(C(=O)O)cc1)C[C@H]2NC(=O)C1(c2ccc(C)c(OC)c2)CC1` [Example 86, 4-[(2R,4R)-7-methoxy-4-{[1-(3-methoxy-4-methylphenyl)cyclopropane-1-carbonyl]amino}-3,4-dihydro-2H-1-benzopyran-2-yl]benzoic acid] are 0.57 µM and 57.9%.
Consider `COc1ccc2c(c1)O[C@@H](c1ccc(C(=O)O)cc1)C[C@H]2NC(=O)C1(c2cccc(C#N)c2)CC1` [Example 87, 4-[(2R,4R)-4-{[1-(3-cyanophenyl)cyclopropane-1-carbonyl]amino}-7-methoxy-3,4-dihydro-2H-1-benzopyran-2-yl]benzoic acid], for which the EC50 came to 1.83 µM and the Maximum % activity amounted to 46.0%.
`COc1ccc2c(c1)O[C@@H](c1ccc(C(=O)O)cc1)C[C@H]2NC(=O)C1(c2cccc(Br)c2)CC1` [Example 88, 4-[(2R,4R)-4-{[1-(3-bromophenyl)cyclopropane-1-carbonyl]amino}-7-methoxy-3,4-dihydro-2H-1-benzopyran-2-yl]benzoic acid] came in with an EC50 of 0.64 µM and a Maximum % activity of 44.0%.
With `COc1ccc2c(c1)O[C@@H](c1ccc(C(=O)O)cc1)C[C@H]2NC(=O)C1(c2ccccc2Br)CC1` [Example 89, 4-[(2R,4R)-4-{[1-(2-bromophenyl)cyclopropane-1-carbonyl]amino}-7-methoxy-3,4-dihydro-2H-1-benzopyran-2-yl]benzoic acid], the response was half-maximal at 0.75 µM (EC50) and the Maximum % activity was determined as 42.0%.
The corresponding values for `COc1ccc2c(c1)O[C@@H](c1ccc(C(=O)O)cc1)C[C@H]2NC(=O)C1(c2cccc(F)c2)CCCC1` [Example 90, 4-[(2R,4R)-4-{[1-(3-fluorophenyl)cyclopentane-1-carbonyl]amino}-7-methoxy-3,4-dihydro-2H-1-benzopyran-2-yl]benzoic acid] are greater than 20 µM and 8.1%.
In turn, `COc1ccc2c(c1)O[C@@H](c1ccc(C(=O)O)cc1)C[C@H]2NC(=O)C1(c2ccccc2F)CCCC1` [Example 91, 4-[(2R,4R)-4-{[1-(2-fluorophenyl)cyclopentane-1-carbonyl]amino}-7-methoxy-3,4-dihydro-2H-1-benzopyran-2-yl]benzoic acid] registered an EC50 greater than 20 µM and a Maximum % activity of 5.0%.
The like results for `COc1ccc2c(c1)O[C@@H](c1ccc(C(=O)O)cc1)C[C@H]2NC(=O)C1(c2ccc(C#N)cc2)CC1` [Example 92, 4-[(2R,4R)-4-{[1-(4-cyanophenyl)cyclopropane-1-carbonyl]amino}-7-methoxy-3,4-dihydro-2H-1-benzopyran-2-yl]benzoic acid] were, in that order, 0.35 µM and 62.0%.
For `COc1ccc2c(c1)O[C@@H](c1ccc(C(=O)O)cc1)C[C@H]2NC(=O)C1(c2ccc(F)cc2)CCCC1` [Example 93, 4-[(2R,4R)-4-{[1-(4-fluorophenyl)cyclopentane-1-carbonyl]amino}-7-methoxy-3,4-dihydro-2H-1-benzopyran-2-yl]benzoic acid], the EC50 was greater than 20 µM and the Maximum % activity was determined as 5.7%.
The like results for `COc1ccc2c(c1)O[C@@H](c1ccc(C(=O)O)cc1)C[C@H]2NC(=O)C1(c2ccccc2Br)CCC1` [Example 94, 4-[(2R,4R)-4-{[1-(2-bromophenyl)cyclobutane-1-carbonyl]amino}-7-methoxy-3,4-dihydro-2H-1-benzopyran-2-yl]benzoic acid] were, in that order, 2.63 µM and 49.0%.
As for `COc1ccc2c(c1)O[C@@H](c1ccc(C(=O)O)cc1)C[C@H]2NC(=O)C1(c2ccc(Cl)c(Cl)c2)CCC1` [Example 95, 4-[(2R,4R)-4-{[1-(3,4-dichlorophenyl)cyclobutane-1-carbonyl]amino}-7-methoxy-3,4-dihydro-2H-1-benzopyran-2-yl]benzoic acid], the EC50 was determined as 1.33 µM and the Maximum % activity turned out to be 76.0%.
The corresponding values for `COc1ccc2c(c1)O[C@@H](c1ccc(C(=O)O)cc1)C[C@H]2NC(=O)C1(c2ccccc2Cl)CCC1` [Example 96, 4-[(2R,4R)-4-{[1-(2-chlorophenyl)cyclobutane-1-carbonyl]amino}-7-methoxy-3,4-dihydro-2H-1-benzopyran-2-yl]benzoic acid] are 3.01 µM and 33.0%.
The corresponding values for `COc1ccc2c(c1)O[C@@H](c1ccc(C(=O)O)cc1)C[C@H]2NC(=O)C1(c2ccccc2)CCCC1` [Example 97, 4-{(2R,4R)-7-methoxy-4-[(1-phenylcyclopentane-1-carbonyl)amino]-3,4-dihydro-2H-1-benzopyran-2-yl}benzoic acid] are greater than 20 µM and 2.5%.
With `COc1ccc2c(c1)O[C@@H](c1ccc(C(=O)O)cc1)C[C@H]2NC(=O)C1(c2ccc(Cl)cc2)CCCC1` [Example 98, 4-[(2R,4R)-4-{[1-(4-chlorophenyl)cyclopentane-1-carbonyl]amino}-7-methoxy-3,4-dihydro-2H-1-benzopyran-2-yl]benzoic acid], the EC50 was greater than 20 µM and the Maximum % activity was determined as 13.0%.
The corresponding values for `COc1ccc2c(c1)O[C@@H](c1ccc(C(=O)O)cc1)C[C@H]2NC(=O)C(C)(C)Oc1ccc2c(c1)OCO2` [Example 99, 4-[(2R,4R)-4-{2-[(2H-1,3-benzodioxol-5-yl)oxy]-2-methylpropanamido}-7-methoxy-3,4-dihydro-2H-1-benzopyran-2-yl]benzoic acid] are greater than 20 µM and 15.9%.
Turning to `COc1ccc2c(c1)CC[C@@]2(C)C(=O)N[C@@H]1C[C@H](c2ccc(C(=O)O)cc2)Oc2cc(OC)ccc21` [Example 100, 4-[(2R,4R)-7-methoxy-4-{[(1R)-5-methoxy-1-methyl-2,3-dihydro-1H-indene-1-carbonyl]amino}-3,4-dihydro-2H-1-benzopyran-2-yl]benzoic acid], the EC50 was determined as 0.48 µM and the Maximum % activity is on record as 55.3%.
On to `COc1ccc2c(c1)O[C@@H](c1ccc(C(=O)O)cc1)C[C@H]2NC(=O)C1(c2cccc(Cl)c2)CC1` [Example 101, 4-[(2R,4R)-4-{[1-(3-chlorophenyl)cyclopropane-1-carbonyl]amino}-7-methoxy-3,4-dihydro-2H-1-benzopyran-2-yl]benzoic acid], for which a half-maximal response (EC50) required 0.66 µM and the Maximum % activity is listed as 46.0%.
`COc1ccc2c(c1)O[C@@H](c1ccc(C(=O)O)cc1)C[C@H]2NC(=O)C1(c2ccccc2)CCC1` [Example 102, 4-{(2R,4R)-7-methoxy-4-[(1-phenylcyclobutane-1-carbonyl)amino]-3,4-dihydro-2H-1-benzopyran-2-yl}benzoic acid] showed an EC50 greater than 20 µM and a Maximum % activity of 18.1%.
As for `COc1ccc2c(c1)O[C@@H](c1ccc(C(=O)O)cc1)C[C@H]2NC(=O)C1(c2ccccc2OC)CC1` [Example 103, 4-[(2R,4R)-7-methoxy-4-{[1-(2-methoxyphenyl)cyclopropane-1-carbonyl]amino}-3,4-dihydro-2H-1-benzopyran-2-yl]benzoic acid], the EC50 is 4.01 µM and the Maximum % activity is recorded as 29.0%.
The corresponding values for `COc1ccc2c(c1)O[C@@H](c1ccc(C(=O)O)cc1)C[C@H]2NC(=O)C1(c2ccc(Br)cc2)CCC1` [Example 104, 4-[(2R,4R)-4-{[1-(4-bromophenyl)cyclobutane-1-carbonyl]amino}-7-methoxy-3,4-dihydro-2H-1-benzopyran-2-yl]benzoic acid] are 1.56 µM and 71.0%.
